Source: US20120196324A1, “Method for Producing an Antifungal Peptide in a Filamentous Fungal Host Cell” (NOVOZYMES A/S, priority 2007, published 2012)

Tests used:
[1] = system: Pichia pastoris gcs-deletion mutants; details: glucosylceramide synthetase deficient Pichia pastoris; cited from earlier work
[2] = system: Candida albicans gcs-deletion mutants; details: glucosylceramide synthetase deficient Candida albicans; cited from earlier work
[3] = system: Candida utilis; experiment: Bioassay (plate assay, growth inhibition seen as clearing zones); format: cell-based; details: ETD151 expressed by BECh2 transformants (pPtSL4); Candida utilis as target organism
Method: ETD151 was diluted to 58 μg/ml in peptide dilution buffer (0.1% BSA, 0.01% Acetic Acid) and further on to 6 μg/ml and 0.6 μg/ml and used as control. Candida utilis was grown on YPD plates, A. oryzae on Cove N medium slants. An inoculum of fungal growth was resuspended in 0.1% Tween to an optical density of approx. 1 McFarland Unit. A NUNC-tube with 15 ml ⅓ PD agarose at approx. 42° C. was inoculated with approx. 6×10^6 CFU, mixed thoroughly and poured into a sterile 9 cm square dish (Falcon 351112) on a levelling table and allowed to solidify and set for 30 minutes. Ten μl of each of the peptide dilutions was added to the surface of the plate. The plates were incubated at 30° C. (or 37° C. as appropriate). The next day, growth was detected either by observing the inhibition zones by oblique illumination (or by adding 3 ml of a 3 mM MTT solution and leaving the plate for 1-2 hours at room temperature).
BECh2 was transformed with plasmid pPtSL4 and subjected to amdS medium. amdS resistant colonies were isolated as spores from single sporangies and subjected to amdS medium twice. From 45 BECh2 transformants, 43 were subjected to a Bioassay as described using Candida utilis as target organism and to SDS gel electrophoresis.

[4] = system: gcs- mutants of A. oryzae ToC1512; experiment: Tolerance to ETD151: growth in YCM with ETD151; format: cell-based, Aspergillus oryzae; details: high concentrations of ETD151 (maximum 5815 mg/L), 6 days, 7 gcs- mutants
Method: (§1) Selected strains were subjected to YCM with 0-5815 mg/L ETD151 for 6 days in order to test tolerance to ETD151.
(§2) To test the tolerance to ETD151, ToC1512, BECh2 and the 7 gcs^− mutants were grown in YCM with different amounts of ETD151 (maximum 5815 mg/L). […] One of the gcs^− mutants (no. 18) was hereafter selected and named PtSL1.

[5] = system: Aspergillus oryzae BECh2; experiment: Tolerance to ETD151: growth in YCM with ETD151; format: cell-based; details: YCM with different amounts of ETD151 (maximum 5815 mg/L), 6 days
Method: as §1, §2

[6] = system: Aspergillus oryzae ToC1512; experiment: Tolerance to ETD151: growth in YCM with ETD151; format: cell-based; details: YCM with different amounts of ETD151 (maximum 5815 mg/L), 6 days
Method: as §1, §2

## RsAFP2: antifungal defensin (QKLCQRPSGTWSGVCGNNNACKNQCIRLEKARHGSCNYVFPAHKCICYFPC; UniProt P30230 30-80, looked up)
[1]
  susceptibility of gcs-deletion mutants: resistant
[2]
  susceptibility of gcs-deletion mutants: resistant

## ETD151: heliomycin derivative, antifungal defensin peptide shown in SEQ ID NO: 7, expressed in Aspergillus oryzae (DKLIGSCVWGAVNYTSNCRAECKRRGYKGGHCGSFANVNCWCET; heliomycin derivative)
[3]
  growth inhibition in plate Bioassay: clearing zones
[4]
  growth of strain in presence of ETD151: grew very well
[5]
  growth of strain in presence of ETD151: grew badly
[6]
  growth of strain in presence of ETD151: did not grow at all
